Patent publication US10533015B1, “Opioid receptor antagonist prodrugs” (Nirsum Laboratories, Inc., priority 2019, dated 2020)
Like-named read-outs stand apart in the source and are kept apart here.

Columns and labels:
[1] = Plasma stability assay, rat plasma; type: in vitro ADME; conditions: 10 μM, 37° C.
Protocol: Plasma stability determination of the test compounds in rat, dog, cynomolgus monkey and human plasma is performed using HPLC-MS. For rat, incubations are carried out in 96-well polypropylene plates in 5 aliquots of 70 μL each (one for each time point). […] Five time points are analyzed (0, 15, 120, 480 and 1440 min). For dog, monkey and human, test compounds (2 μM, final solvent concentration 1%) were also incubated at 37° C. and analyzed at five time points (0, 10, 30, 60 and 120 min). All incubations are performed in duplicates. The samples are analyzed by HPLC-MS. The percentage of parent compound remaining after incubation in plasma is determined.

[2] = for Approximate Solubility (mg/mL) in Excipient: Cottonseed oil / Approximate Solubility (mg/mL) in Excipient: Ethanol / Approximate Solubility (mg/mL) in Excipient: Sesame oil: obs. temp. 40 °C; for Equilibrium solubility (mg/mL) Water: temperatures N/A
[3] = Polymorph screening of solid state drug substances; conditions: for Dry method and appearance: after stirring 50 °C 72 hours, dried solid; for XRPD results (Dried): dried solid after 50 °C 72 hours; for Visual observation 50° C. / Visual observation RT: target conc. 100 mg/ml

Row | SMILES | % remaining at time point ([1]; 0 min) [%] | % remaining at time point ([1]; 15 min) [%] | % remaining at time point ([1]; 120 min) [%] | % remaining at time point ([1]; 480 min) [%] | % remaining at time point ([1]; 1440 min) [%] | Approximate Solubility (mg/mL) in Excipient: Cottonseed oil ([2]; heating temp. 40 °C) [mg/mL] | Approximate Solubility (mg/mL) in Excipient: Ethanol ([2]; heating temp. 40 °C) [mg/mL] | Approximate Solubility (mg/mL) in Excipient: Sesame oil ([2]; heating temp. 40 °C) [mg/mL] | Dry method and appearance ([3]; Acetone) | XRPD results (Dried) ([3]; Acetone) | Visual observation 50° C. ([3]; Acetone) | Visual observation RT ([3]; Acetone) | Dry method and appearance ([3]; EtOAc) | XRPD results (Dried) ([3]; EtOAc) | Visual observation 50° C. ([3]; EtOAc) | Visual observation RT ([3]; EtOAc) | Dry method and appearance ([3]; Heptane) | XRPD results (Dried) ([3]; Heptane) | Visual observation 50° C. ([3]; Heptane) | Visual observation RT ([3]; Heptane) | other results
1 | C=C1CC[C@@]2(O)C3Cc4ccc(OC(=O)CCCCCCCCCCCCCCCCCCCCC)c5c4[C@@]2(CCN3CC2CC2)[C@H]1O5 [Compound 14, (4aS,7aS,12bS)-3-(cyclopropylmethyl)-4a-hydroxy-7-methylene-2,3,4,4a,5,6,7,7a-octahydro-1H-4,12-methanobenzofuro[3,2-e]isoquinolin-9-yl docosanoate] | 100 | 94 | 112 | 107 | 120 | <50 | 69 to 83 | <51 | Evaporation/white powder | Pattern A | Clear | Slimy | Evaporation/white powder | Pattern A | Clear | Slurry | Centrifugation/white powder | Pattern B | Slurry | Slurry | Approximate Solubility (mg/mL) in Excipient: Cottonseed oil ([2]; heating temp. 60 °C): <25 mg/mL; Approximate Solubility (mg/mL) in Excipient: Sesame oil ([2]; heating temp. 60 °C): <25 mg/mL; Equilibrium solubility (mg/mL) Water ([2]; compound after slurry in EtOAc): <0.0005 mg/mL; Equilibrium solubility (mg/mL) Water ([2]; compound after slurry in Heptane): <0.0005 mg/mL; Dry method and appearance ([3]; Isopropanol): Evaporation/white powder; XRPD results (Dried) ([3]; Isopropanol): Pattern A; Visual observation 50° C. ([3]; Isopropanol): Clear; Visual observation RT ([3]; Isopropanol): Clear; Dry method and appearance ([3]; MTBE): Evaporation/white powder; XRPD results (Dried) ([3]; MTBE): Pattern A; Visual observation 50° C. ([3]; MTBE): Clear; Visual observation RT ([3]; MTBE): Clear
2 | C=C1CC[C@@]2(O)C3Cc4ccc(OC(=O)OCCCCCCCCCCCCCCCC)c5c4[C@@]2(CCN3CC2CC2)[C@H]1O5 [Compound 19, (4aS,7aS,12bS)-3-(cyclopropylmethyl)-4a-hydroxy-7-methylene-2,3,4,4a,5,6,7,7a-octahydro-1H-4,12-methanobenzofuro[3,2-e]isoquinolin-9-yl hexadecyl carbonate] | 100 | 70.1 | 71.5 | 43.8 | 33.3 | 67 to 80 | 27 to 42 | 103 to 137 | Evaporation/white powder | Pattern A | Clear | Slurry | Evaporation/white powder | Pattern A | Clear | Slurry | Evaporation/white powder | Pattern A | Clear | Slurry | Dry method and appearance ([3]; Isopropanol): Evaporation/white powder; XRPD results (Dried) ([3]; Isopropanol): Pattern A; Visual observation 50° C. ([3]; Isopropanol): Clear; Visual observation RT ([3]; Isopropanol): Slurry; Dry method and appearance ([3]; MTBE): Evaporation/white powder; XRPD results (Dried) ([3]; MTBE): Pattern A; Visual observation 50° C. ([3]; MTBE): Clear; Visual observation RT ([3]; MTBE): Clear
